Experimental data as given in BindingDB's records for patent US20250230147 (Genentech, 2025).

How the values were obtained:
[1] = biological target: E3 ubiquitin-protein ligase CBL (Homo sapiens, UniProt P22681); experiment: Cbl-b and c-Cbl SPR Assay
[2] = biological target: E3 ubiquitin-protein ligase CBL-B (Homo sapiens, UniProt Q13191); experiment: Cbl-b and c-Cbl SPR Assay
Chain of E3 ubiquitin-protein ligase CBL-B (Q13191 whole entry): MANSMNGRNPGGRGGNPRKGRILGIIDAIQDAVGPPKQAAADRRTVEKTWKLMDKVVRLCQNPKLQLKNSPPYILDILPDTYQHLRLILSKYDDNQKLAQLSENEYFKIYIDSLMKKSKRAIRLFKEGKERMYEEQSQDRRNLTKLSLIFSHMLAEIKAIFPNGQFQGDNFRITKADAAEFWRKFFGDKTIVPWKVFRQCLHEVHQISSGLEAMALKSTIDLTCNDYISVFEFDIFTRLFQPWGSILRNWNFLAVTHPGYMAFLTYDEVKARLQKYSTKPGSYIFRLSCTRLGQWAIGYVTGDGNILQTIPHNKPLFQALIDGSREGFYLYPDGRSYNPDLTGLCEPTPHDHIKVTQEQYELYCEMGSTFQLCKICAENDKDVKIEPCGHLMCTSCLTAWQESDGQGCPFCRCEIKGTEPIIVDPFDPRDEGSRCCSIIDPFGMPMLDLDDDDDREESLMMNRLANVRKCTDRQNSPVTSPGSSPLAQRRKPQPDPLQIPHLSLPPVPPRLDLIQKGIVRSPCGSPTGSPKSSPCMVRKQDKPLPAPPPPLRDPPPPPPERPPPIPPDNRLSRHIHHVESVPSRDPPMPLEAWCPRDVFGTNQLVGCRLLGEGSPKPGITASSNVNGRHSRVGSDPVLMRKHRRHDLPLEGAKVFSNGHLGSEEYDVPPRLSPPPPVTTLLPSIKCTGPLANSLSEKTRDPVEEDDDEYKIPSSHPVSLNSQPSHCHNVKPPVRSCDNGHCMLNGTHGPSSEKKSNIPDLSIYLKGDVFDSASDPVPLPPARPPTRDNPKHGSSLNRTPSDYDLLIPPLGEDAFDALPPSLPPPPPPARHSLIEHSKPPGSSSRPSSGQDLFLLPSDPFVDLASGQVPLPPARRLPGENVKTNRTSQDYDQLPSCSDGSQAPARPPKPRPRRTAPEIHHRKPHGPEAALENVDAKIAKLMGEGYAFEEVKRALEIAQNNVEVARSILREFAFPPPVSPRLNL

Row | Structure (SMILES) | IC50 [1] | IC50 [2]
1 | Cn1cnnc1[C@H](F)[C@@](C)(F)c1cccc(N2Cc3c(cc(CN4CCC5(CC5)C4)cc3C(F)(F)F)C2=O)c1 [US20250230147, Compound 128] | 1600 nM | 480 nM
2 | Cn1cnnc1[C@@H](F)[C@](C)(F)c1cccc(N2Cc3c(cc(CN4CCC5(CC5)C4)cc3C(F)(F)F)C2=O)c1 [US20250230147, Compound 129] | 460 nM | 130 nM
3 | Cn1cnnc1[C@@H](F)[C@@](C)(F)c1cccc(N2Cc3c(cc(CN4CCC5(CC5)C4)cc3C(F)(F)F)C2=O)c1 [US20250230147, Compound 130] | 13000 nM | 4000 nM

Stronger by IC50 [1], values ahead:

Row | IC50 [1] | IC50 [2] | Structure (SMILES)
4 | 170 nM | 77 nM | Cn1cnnc1[C@H](F)[C@](C)(F)c1cccc(N2Cc3c(cc(CN4CCC5(CC5)C4)cc3C(F)(F)F)C2=O)c1 [US20250230147, Compound 127]
5 | 8.5 nM | 12 nM | Cn1cnnc1[C@H](F)C1(c2cccc(N3Cc4c(Cl)cc(CNC5(C)CCC5)cc4C3=O)c2)COC1 [US20250230147, Compound 470]
